The text below walks through data of ChEMBL document CHEMBL1135202, “Design, synthesis and evaluation of 4-imidazolylflavans as new leads for aromatase inhibition” (Bioorg Med Chem Lett, 2002).

What all share (set-up): species or system Placenta
For series [1], the target named is T1, Aromatase (Homo sapiens, UniProt P11511).
T1 sequence (P11511 whole entry): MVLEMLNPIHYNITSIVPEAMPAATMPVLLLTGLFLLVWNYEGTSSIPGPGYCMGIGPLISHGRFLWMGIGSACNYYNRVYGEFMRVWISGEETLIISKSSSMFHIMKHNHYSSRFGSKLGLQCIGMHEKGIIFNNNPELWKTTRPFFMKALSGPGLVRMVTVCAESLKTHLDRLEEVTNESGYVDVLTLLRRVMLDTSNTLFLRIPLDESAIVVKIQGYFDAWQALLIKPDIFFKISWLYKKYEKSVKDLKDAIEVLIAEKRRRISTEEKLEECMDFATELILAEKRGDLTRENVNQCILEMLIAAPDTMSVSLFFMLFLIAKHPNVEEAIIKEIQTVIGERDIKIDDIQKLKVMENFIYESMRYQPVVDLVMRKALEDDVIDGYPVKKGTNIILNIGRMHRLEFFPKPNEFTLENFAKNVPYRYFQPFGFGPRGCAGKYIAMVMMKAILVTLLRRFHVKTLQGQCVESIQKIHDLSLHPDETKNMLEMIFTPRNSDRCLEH
In words: Relative potency for aromatase inhibition in human placental microsomes compared to aminoglutethimide.

Series [2] addresses T1, Aromatase. In words: Relative potency for aromatase inhibition in human placental microsomes compared to flavanone.
In series [3] the target is T1, Aromatase. In words: Inhibition of aromatase activity in human placental microsomes.

Broadly, the IC50 is the concentration that inhibits the measured activity by half. As to `Oc1ccc2c(c1)OC(c1ccccc1)CC2n1ccnc1` (stereo not drawn), the Relative potency on Aromatase [1] came to 127; on Aromatase [2] it was 93. Moreover, at Aromatase [3], the 50% inhibitory concentration (IC50) was 0.041 µM.
